From patent US11053204B2, “Pyrimidinyloxy benzene derivatives as herbicides” (FMC Corporation, priority 2015, dated 2021)

Key:
Type in all cases: in vivo
corn (Zea mays) = assay: Test C postemergence, plant response rating; conditions: for Corn plant response rating: scale 0 to 100 (0 no effect, 100 complete control)
How it was run: (§1)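 Both timings shared one formulation, a non-phytotoxic solvent mixture with surfactant, and a greenhouse period of 13 to 15 d. Preemergence used seeded loam/sand or silt loam soil, postemergence used 2 to 18 cm plants; visual ratings ran from 0 (no effect) to 100 (complete control).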

soybean (Glycine max) = assay: Test C postemergence, plant response rating; conditions: for Soybean plant response rating: scale 0 to 100 (0 no effect, 100 complete control)
How it was run: as §1

[1] = system: oilseed rape (Brassica napus); assay: Test C postemergence, plant response rating; conditions: for Oilseed Rape plant response rating: scale 0 to 100 (0 no effect, 100 complete control)
How it was run: as §1

[2] = system: ragweed (common ragweed, Ambrosia elatior); assay: Test C postemergence, plant response rating; conditions: for Ragweed plant response rating: scale 0 to 100 (0 no effect, 100 complete control)
How it was run: as §1

[3] = system: nutsedge, yellow (yellow nutsedge, Cyperus esculentus); assay: Test C postemergence, plant response rating; conditions: for Nutsedge, Yellow plant response rating: scale 0 to 100 (0 no effect, 100 complete control)
How it was run: as §1

[4] = system: velvetleaf (Abutilon theophrasti); assay: Test C postemergence, plant response rating
How it was run: as §1

[5] = system: blackgrass (Alopecurus myosuroides); assay: Test C postemergence, plant response rating; conditions: for Plant response rating, Blackgrass: scale 0 to 100; for Blackgrass plant response rating: scale 0 to 100 (0 no effect, 100 complete control)
How it was run: as §1

kochia (Kochia scoparia) = assay: Test C postemergence, plant response rating; conditions: for Kochia plant response rating: scale 0 to 100 (0 no effect, 100 complete control)
How it was run: as §1

[6] = system: lambsquarters (Chenopodium album); assay: Test C postemergence, plant response rating; conditions: for Lambsquarters plant response rating: scale 0 to 100 (0 no effect, 100 complete control)
How it was run: as §1

[7] = system: oat, wild (wild oat Avena fatua); assay: Test C postemergence, plant response rating; conditions: for Oat, Wild plant response rating: scale 0 to 100 (0 no effect, 100 complete control)
How it was run: as §1

[8] = system: galium (catchweed bedstraw, Galium aparine); assay: Test C postemergence, plant response rating; conditions: for Galium plant response rating: scale 0 to 100 (0 no effect, 100 complete control)
How it was run: as §1

[9] = system: chickweed (common chickweed, Stellaria media); assay: Test C postemergence, plant response rating; conditions: for Chickweed plant response rating: scale 0 to 100 (0 no effect, 100 complete control)
How it was run: as §1

[10] = system: morningglory (Ipomoea coccinea); assay: Test C postemergence, plant response rating; conditions: for Morningglory plant response rating: scale 0 to 100 (0 no effect, 100 complete control)
How it was run: as §1

[11] = system: waterhemp (common waterhemp, Amaranthus rudis); assay: Test C postemergence, plant response rating
How it was run: as §1

[12] = system: wheat (winter wheat, Triticum aestivum); assay: Test C postemergence, plant response rating
How it was run: as §1

[13] = system: foxtail, giant (giant foxtail, Setaria faberii); assay: Test C postemergence, plant response rating; conditions: for Foxtail, Giant plant response rating: scale 0 to 100 (0 no effect, 100 complete control)
How it was run: as §1

[14] = system: oat, wild (wild oat Avena fatua); assay: Test C preemergence, plant response rating
[15] = system: pigweed, palmer (palmer pigweed, Amaranthus palmeri); assay: Test C preemergence, plant response rating
[16] = system: wild poinsettia (Euphorbia heterophylla); assay: Test C preemergence, plant response rating
[17] = system: surinam grass (Brachiaria decumbens); assay: Test C preemergence, plant response rating
[18] = system: windgrass (Apera spica-venti); assay: Test C preemergence, plant response rating
[19] = 125 g ai/ha, scale 0 to 100 (0 no effect, 100 complete control)

`N#Cc1cccc(Oc2ncc(Cl)cn2)c1COCCC(F)(F)F` [Compound 80] was tested, and the “Plant response rating, Corn” value (corn (Zea mays); 16 g ai/ha, scale of 0 to 100) was 15, the “Plant response rating, Corn” value (corn (Zea mays); 31 g ai/ha, scale 0 to 100) was 10 and the “Corn plant response rating” value (corn (Zea mays); 62 g ai/ha) was 15. The “Corn plant response rating” value (corn (Zea mays); 125 g ai/ha) was 25, the “Plant response rating, Soybean” value (soybean (Glycine max); 16 g ai/ha, scale of 0 to 100) was 60 and the “Plant response rating, Soybean” value (soybean (Glycine max); 31 g ai/ha, scale 0 to 100) was 75. The “Soybean plant response rating” value (soybean (Glycine max); 62 g ai/ha) was 90, the “Soybean plant response rating” value (soybean (Glycine max); 125 g ai/ha) was 95 and the “Plant response rating, Oilseed Rape” value ([1]; 16 g ai/ha, scale of 0 to 100) was 50. For the same compound, the “Plant response rating, Oilseed Rape” value ([1]; 31 g ai/ha, scale 0 to 100) was 60, the “Oilseed Rape plant response rating” value ([1]; 62 g ai/ha) was 65 and the “Oilseed Rape plant response rating” value ([1]; 125 g ai/ha) was 70. For the same compound, the “Plant response rating, Ragweed” value ([2]; 16 g ai/ha, scale of 0 to 100) was 5, the “Plant response rating, Ragweed” value ([2]; 31 g ai/ha, scale 0 to 100) was 10 and the “Ragweed plant response rating” value ([2]; 62 g ai/ha) was 15. For the same compound, the “Ragweed plant response rating” value ([2]; 125 g ai/ha) was 35, the “Plant response rating, Nutsedge, Yellow” value ([3]; 16 g ai/ha, scale of 0 to 100) was 0 and the “Plant response rating, Nutsedge, Yellow” value ([3]; 31 g ai/ha, scale 0 to 100) was 0. For the same compound, the “Nutsedge, Yellow plant response rating” value ([3]; 62 g ai/ha) was 5, the “Nutsedge, Yellow plant response rating” value ([3]; 125 g ai/ha) was 5 and the “Plant response rating, Velvetleaf” value ([4]; 16 g ai/ha, scale of 0 to 100) was 30. The “Plant response rating, Velvetleaf” value ([4]; 31 g ai/ha, scale 0 to 100) was 35, the “Velvetleaf plant response rating” value [4, 19] was 55 and the “Plant response rating, Blackgrass” value ([5]; 16 g ai/ha) was 0. The “Plant response rating, Blackgrass” value ([5]; 31 g ai/ha) was 5, the “Blackgrass plant response rating” value ([5]; 62 g ai/ha) was 5 and the “Blackgrass plant response rating” value ([5]; 125 g ai/ha) was 25. For the same compound, the “Plant response rating, Kochia” value (kochia (Kochia scoparia); 16 g ai/ha, scale of 0 to 100) was 55, the “Plant response rating, Kochia” value (kochia (Kochia scoparia); 31 g ai/ha, scale 0 to 100) was 75 and the “Kochia plant response rating” value (kochia (Kochia scoparia); 62 g ai/ha) was 80. For the same compound, the “Kochia plant response rating” value (kochia (Kochia scoparia); 125 g ai/ha) was 80, the “Plant response rating, Lambsquarters” value ([6]; 16 g ai/ha, scale of 0 to 100) was 50 and the “Plant response rating, Lambsquarters” value ([6]; 31 g ai/ha, scale 0 to 100) was 75. For the same compound, the “Lambsquarters plant response rating” value ([6]; 62 g ai/ha) was 80, the “Lambsquarters plant response rating” value ([6]; 125 g ai/ha) was 85 and the “Plant response rating, Oat, Wild” value ([7]; 16 g ai/ha, scale of 0 to 100) was 0. The “Plant response rating, Oat, Wild” value ([7]; 31 g ai/ha, scale 0 to 100) was 0, the “Oat, Wild plant response rating” value ([7]; 62 g ai/ha) was 10 and the “Oat, Wild plant response rating” value ([7]; 125 g ai/ha) was 5. For the same compound, the “Plant response rating, Galium” value ([8]; 16 g ai/ha, scale of 0 to 100) was 70, the “Plant response rating, Galium” value ([8]; 31 g ai/ha, scale 0 to 100) was 75 and the “Galium plant response rating” value ([8]; 62 g ai/ha) was 85. For the same compound, the “Galium plant response rating” value ([8]; 125 g ai/ha) was 90, the “Plant response rating, Chickweed” value ([9]; 16 g ai/ha, scale of 0 to 100) was 60 and the “Plant response rating, Chickweed” value ([9]; 31 g ai/ha, scale 0 to 100) was 75. For the same compound, the “Chickweed plant response rating” value ([9]; 62 g ai/ha) was 75, the “Chickweed plant response rating” value ([9]; 125 g ai/ha) was 90 and the “Plant response rating, Morningglory” value ([10]; 16 g ai/ha, scale of 0 to 100) was 25. The “Plant response rating, Morningglory” value ([10]; 31 g ai/ha, scale 0 to 100) was 35, the “Morningglory plant response rating” value ([10]; 62 g ai/ha) was 55 and the “Morningglory plant response rating” value ([10]; 125 g ai/ha) was 60. The “Plant response rating, Waterhemp” value ([11]; 16 g ai/ha, scale of 0 to 100) was 80, the “Plant response rating, Waterhemp” value ([11]; 31 g ai/ha, scale 0 to 100) was 80 and the “Waterhemp plant response rating” value [11, 19] was 90. For the same compound, the “Plant response rating, Wheat” value ([12]; 16 g ai/ha, scale of 0 to 100) was 0, the “Plant response rating, Wheat” value ([12]; 31 g ai/ha, scale 0 to 100) was 0 and the “Wheat plant response rating” value [12, 19] was 15. The “Plant response rating, Foxtail, Giant” value ([13]; 16 g ai/ha, scale of 0 to 100) was 5, the “Plant response rating, Foxtail, Giant” value ([13]; 31 g ai/ha, scale 0 to 100) was 10 and the “Foxtail, Giant plant response rating” value ([13]; 62 g ai/ha) was 10. The “Foxtail, Giant plant response rating” value ([13]; 125 g ai/ha) was 15, the “Plant response rating, Oat, Wild” value ([14]; 31 g ai/ha, scale 0 to 100) was 0 and the “Plant response rating, Oat, Wild” value ([14]; 62 g ai/ha, scale 0 to 100) was 10. For the same compound, the “Plant response rating, Oat, Wild” value ([14]; 125 g ai/ha, scale of 0 to 100) was 30, the “Plant response rating, Pigweed, Palmer” value ([15]; 31 g ai/ha, scale 0 to 100) was 85 and the “Plant response rating, Pigweed, Palmer” value ([15]; 62 g ai/ha, scale 0 to 100) was 100. For the same compound, the “Plant response rating, Pigweed, Palmer” value ([15]; 125 g ai/ha, scale of 0 to 100) was 98, the “Plant response rating, Poinsettia, Wild” value ([16]; 31 g ai/ha, scale 0 to 100) was 30 and the “Plant response rating, Poinsettia, Wild” value ([16]; 62 g ai/ha, scale 0 to 100) was 40. For the same compound, the “Plant response rating, Poinsettia, Wild” value ([16]; 125 g ai/ha, scale of 0 to 100) was 85, the “Plant response rating, Surinam Grass” value ([17]; 31 g ai/ha, scale 0 to 100) was 50 and the “Plant response rating, Surinam Grass” value ([17]; 62 g ai/ha, scale 0 to 100) was 60. The “Plant response rating, Surinam Grass” value ([17]; 125 g ai/ha, scale of 0 to 100) was 98, the “Plant response rating, Windgrass” value ([18]; 31 g ai/ha, scale 0 to 100) was 60 and the “Plant response rating, Windgrass” value ([18]; 62 g ai/ha, scale 0 to 100) was 100. For the same compound, the “Plant response rating, Windgrass” value ([18]; 125 g ai/ha, scale of 0 to 100) was 100.
